Read-outs that look alike come from different tables or passages of the source.
How the values were obtained:
HCT116 (colon) = experiment: MTS short-term cytotoxicity assay, HCT116; type: cell-based, human
Experimental: Short-term anti-proliferative assays were carried out by two different assays using a panel of human cancer and non-malignant human cell lines. […] The transformed human embryonic kidney cell line HEK293T (wt KRAS) was sensitive to all tested drugs, including TMPyP4, a cationic porphyrin established as a G4 ligand, as well as the anticancer drug 5-fluorouracil (5-FU).
HCT116 human colon carcinoma cells, SW620 human colorectal adenocarcinoma and HEK293 T human embryonic kidney cells were grown in Dulbecco's modified Eagle's medium (DMEM) supplemented with 10% fetal bovine serum, and 1% antibiotic/antimycotic (Invitrogen, Grand Island, NY, USA) and maintained at 37°C in a humidified atmosphere of 5% CO2. Cells were seeded in 96 well plates at 5.000 cells/well. Twenty-four hours after cell plating, media was removed and replaced with fresh media containing test compounds and 5-FU (Sigma), a common cytotoxic agent used in colon cancer treatmen, or vehicle control (DMSO). Following 72 h of compound exposure, cell viability was evaluated using the CellTiter 96 AQueous Non-Radioactive Cell Proliferation Assay (Promega, Madison, WI, USA), using 3-(4,5-dimethylthiazol-2-yl)-5-(3-carboxymethoxyphenyl)-2-(4-sulfophenyl)-2H-tetrazolium, inner salt (MTS) as previously described. Cell viability data were expressed as mean ± SEM or mean ± SD from at least three independent experiments. IC50 and IC65 values were determined using GaphPad Prism v.5.00 (GraphPad Software). (Performed at Cell Function and Therapeutic Targeting Group, iMed.ULisboa)

[1] = tested on: human KRAS promoter (pGL-Ras0.5, pGL-Ras2.0); experiment: KRAS promoter luciferase reporter assay in HEK293T cells; type: cell-based; conditions: equitoxic (IC50) concentrations, 72 h, vs DMSO
Description: A first evaluation of the compounds' ability to down-regulate KRAS gene transcription by directly acting on the KRAS promoter was undertaken with a luciferase reporter assay. For this purpose two different size wild-type promoter constructs were used, containing the G4 sequence and cloned into the Firefly luciferase pGL3 Basic backbone (pGL-Ras0.5, PGL-Ras2.0). These and pGL3 Basic empty (Firefly Luciferase negative control/no promoter) were co-transfected into HEK293T cells together with Renilla luciferase pRL-TK (transfection efficiency normalization) as a G4 negative control. […] In general, the data in Figure 5 clearly portraits a reduction of luciferase activity by ~25–50% when compared to Renilla basal levels induced by all G4 ligands.
Figure 5 KRAS promoter activity is decreased following exposure of HEK293T cells lines to equitoxic (IC50) concentrations of compounds TMPyP4, 2d, 3d and 3e. Cells were co-transfected with pGL3-basic vector (empty vector control), or with KRAS promoter luciferase reporter construct PGL-Ras0.5, or PGL-Ras2.0, together with pRL-TK. Twenty-four h later, cells were replated in 96 wells plates, at 5000 cells per well. […] KRAS promoter activity levels were evaluated by Dual-Luciferase assay 72 h after compound exposure. Results are expressed as the luciferase signal ratio of pGL-Ras2.0 or pGL-Ras0.5 to pGL3-basic vector transfected cells, after normalization with Renilla Luciferase. The results are expressed as the mean ± SEM fold-change compared to DMSO exposure, from three independent experiments. *p < 0.05 and § p < 0.01 from DMSO vehicle control.
HEK293T cells were seeded in 35 mm plates at 150000 cells per well. 24 h later, cells were transiently co-transfected with pGL3-basic vector (empty vector control), or with KRAS promoter luciferase reporter construct pGL-Ras0.5, or pGL-Ras2.0, together with pRL-TK (Promega, Madison, WI, USA). KRAS promotor luciferase reporters respectively harbour 500 bp and 2000 bp of the human KRAS promotor region, and were previously described elsewhere. pGL3 Basic empty was used as negative control, and pRL-TK simultaneously for transfection efficiency normalization and as a G4 negative control. […] Transfections were performed using Lipofectamine 2000 (Invitrogen), according to the manufacturer's instructions. […] Finally, 72 h after compound incubation, cells were lysed and firefly and Renilla luciferase activities were measured using the Dual-Luciferase®Reporter Assay System (Promega). KRAS promoter activity levels were expressed as the luciferase signal ratio of pGL-Ras2.0 or pGL-Ras0.5 to pGL3-basic vector transfected cells, after normalization with Renilla Luciferase. The results are expressed as the mean ± SEM fold-change compared to DMSO exposure, from three independent experiments.

[2] = tested on: F21T (DNA, G4) GGGTTAGGGTAGGGTTAGGG; experiment: FRET melting; conditions: 60 mM K+; K-cacodylate pH 7.4; 0.2 μM DNA, 1 μM compound; SD ≤ 0.2
[3] = Homo sapiens, HCT-116, MTS assay, 72 h, read-out: IC50 HCT116

| Compound | IC50 (HCT116 (colon); [3]) [µM] | Reduction of KRAS promoter (luciferase) activity [1] | ΔTm [2] [°C] | IC50 (HCT116 (colon); Homo sapiens, HCT-116, 72 h, read-out: IC50 HCT116, MTS assay, 72 h) [µM] | IC50 (HCT116 (colon); read-out: IC50 HCT116, MTS assay, 72 h) [µM] |
| --- | --- | --- | --- | --- | --- |
| CCN(CC)CCCNc1ccc2[nH]c3c(c[n+](C)c4ccc(NCCCN(CC)CC)cc34)c2c1.[Cl-] [3d] | 3.46 | up to 50% | – | – | – |
| CCN(CC)CCCNc1ccc2c(c1)[nH]c1c2c[n+](C)c2ccc(NCCCN(CC)CC)cc12.[Cl-] [3e] | 1.8 | up to 50% | 30.7 | – | – |
| C[n+]1ccc(-c2c3nc(c(-c4cc[n+](C)cc4)c4ccc([nH]4)c(-c4cc[n+](C)cc4)c4ccc([nH]4)c(-c4cc[n+](C)cc4)c4nc2C=C4)C=C3)cc1 [TMPyP4, reference compound] | – | 25% | – | 12.3 | 12.4 |
| Cn1cc2c3ccccc3nc-2c2cc(Br)ccc21 [2a, 2-bromo-5-methyl-indolo[3,2-c]quinoline] | 0.14 | – | 5.6 | – | – |
| CCN(CC)CCCNc1ccc2c(c1)c1[nH]c3ccccc3c1c[n+]2C [2d] | 0.46 | up to 50% | 17.7 | – | – |
